Structures can show the parent of a compound that is named as a salt. Where two headings read alike, the source gives them in different places.

In this experiment the target is Recombinant human renin (Homo sapiens (Human), UniProt P00797). Nature of the experiment: Inhibitory activity against human renin (fluorogenic synthetic peptide substrate). Type of experiment: biochemical. As to the method:
Inhibitory Activity Against Human Renin
A renin substrate of synthetic peptide (Nma-KHPFH LVIHK(Dnp)-NH2) and test compound were mixed, and fluorescence intensity was assayed using a fluorophotometer before starting an enzymatic reaction (exciting wavelength: 340 nm, measuring wavelength: 460 nm). Recombinant human renin was added and the mixture was incubated at 37° C. for an hour, and the fluorescence intensity was measured after the reaction using a fluorophotometer (exciting wavelength: 340 nm, measuring wavelength: 460 nm). Renin activity was evaluated on the ground of fluorescence intensity which was obtained by deduction of the intensity before the reaction from the intensity after the reaction, and 50% inhibitory concentration (IC50) was calculated from renin activities under the existence of various concentration of the tested compound.

Setting [1] is: recombinant human renin, substrate Nma-KHPFH LVIHK(Dnp)-NH2, 37° C. for an hour, fluorescence, read-out: Inhibitory Activity against human Renin(IC50).

Chain of Recombinant human renin (P00797 67-406): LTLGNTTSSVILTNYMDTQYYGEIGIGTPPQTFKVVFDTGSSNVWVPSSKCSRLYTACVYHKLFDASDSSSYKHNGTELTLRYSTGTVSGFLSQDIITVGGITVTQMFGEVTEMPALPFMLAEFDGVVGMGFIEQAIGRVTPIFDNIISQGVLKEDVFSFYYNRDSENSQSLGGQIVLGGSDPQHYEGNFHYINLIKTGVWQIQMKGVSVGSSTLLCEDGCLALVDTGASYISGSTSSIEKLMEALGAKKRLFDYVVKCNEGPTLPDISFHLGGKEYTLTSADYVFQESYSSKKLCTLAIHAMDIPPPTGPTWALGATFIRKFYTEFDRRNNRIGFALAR

As for `COCCCOc1cc(CN(C(=O)[C@H]2CNCCO2)C2CC2)ccc1OC` [(2R)—N-cyclopropyl-N-[4-methoxy-3-(3-methoxypropoxy)benzyl]morpholine-2-carboxamide hydrochloride], the IC50 (assay for renin-inhibition, read-out: renin-inhibition IC50) is below 1 µM.

As to `COCCCOc1cc(CN(C(=O)[C@H]2CNCCO2)C2CC2)cc2ccccc12` [Example 4, (2R)—N-cyclopropyl-N-{[4-(3-methoxypropoxy)-2-naphthyl]methyl}morpholin-2-carboxamide hydrochloride], the IC50 under setting [1] is 0.0302 µM.

As to `COCCCn1cc(CN(C(=O)[C@H]2CNCCO2)C2CC2)c2ccccc21` [Example 39], the IC50 under setting [1] was 0.013 µM.
